Measured values from patent publication US10828288B2, “Hydrazone derivatives for the treatment of cancer” (RUTGERS, THE STATE UNIVERSITY OF NEW JERSEY, priority 2015, dated 2020).

Tests used:
[1] = tested on: HEK293 (non-cancer, p53-WT) cells; test: Intracellular [Zn2+]free imaging with FluoZin-3-AM, HEK293; format: cell-based; conditions: for increase of intracellular [Zn2+]free (FZ3-AM fluorescence): HEK293, complete media, confocal microscopy
Method: To minimize the potential for Zn^2+ contamination and contributions from poorly defined elements in complete media (e.g. FBS), cells were treated and imaged in Ca^2+ and Mg^2+-free Earle's Balanced Salt Solution supplemented with 10 mM HEPES pH 7.4 (EBSS/H (−)Ca/Mg). Excess ZnCl2 with the Zn^2+ ionophore pyrithione (PYR) was used as a positive control. Excess membrane-permeable Zn^2+ chelator N,N,N′,N′-tetrakis(2-pyridylmethyl)ethane-1,2-diamine (TPEN) was used as a negative control.
To normalize for differential dye loading, cells were then sequentially treated with excess PYR/ZnCl2, imaged, treated with TPEN, and imaged again. PYR/ZnCl2 and TPEN served to saturate and apoize the intracellular FZ3, respectively.
(§1) [formula] where Ji is the initial flux, ΔF/Δt is the slope of the fit line, Fmax is RZ-3 fluorescence in the presence of saturating Zn^2+ and 1% TritonX-100, Fmin is RZ-3 fluorescence in the presence of excess EDTA and 1% TritonX-100, [RZ3] is the concentration of encapsulated RZ-3, and SA/Vol is the surface area to volume ratio calculated assuming hollow spheres of the mean diameter determined by DLS. Intracellular [Zn^2+]free Imaging TOV112D or HEK293 cells (40,000 cells/well) were plated on either 8-well BD Falcon chambered culture slides (Corning Life Sciences) or 8-chambered #1.5 Nunc Lab-Tek II chambered coverglasses (Thermo Scientific) treated with poly-L-lysine. After 48 h, cells were washed 2×5 m in serum-free media and incubated with 1 μM FZ3-AM for 40 m at 37° C. Cells were then washed 2×5 m in either EBSS/H (−)Ca/Mg or phenol-red free DMEM+10% FBS containing the indicated treatments for 20 m before imaging. For nuclear colocalization, 1 μg/mL Hoechst 33342 was also included. Cells were imaged using a Zeiss LSM510 META NLO confocal microscope equipped with 37° C. environmental control chamber. FZ3 and Hoechst 33342 were excited at 488 nm (argon laser) and 790 nm (Chameleon Ti:sapphire laser), respectively. To determine the kinetics of fluorescence change, each background-subtracted image in the time-lapse series was integrated in ImageJ and normalized to the integrated fluorescence of the first frame after treatment. For quantification of intracellular [Zn^2+]free, each cell was analyzed in the treated, 50 μM PYR/ZnCl2 (1:1), and 100 μM TPEN images by taking the mean fluorescence of an ROI inside the cell subtracted by an ROI immediately outside the cell measured in ImageJ. The [Zn^2+]free for each cell was then calculated by Eqn 2:
[formula] […] To minimize the effects of outliers the lowest and highest 5% of cells in each series were rejected, and the remaining values averaged to give the value from that experiment. The number of cells analyzed in each trial ranged from 54-163. For nuclear colocalization, treated, PYR/ZnCl2, and TPEN treated images costained with Hoechst 33342 were aligned and each pixel subjected to Eqn. 2 in MATLAB (MathWorks).

[2] = Liposome import assay (RZ-3 fluorescence); format: physicochemical; conditions: for change of RZ-3 fluorescence with reversed [Zn2+]free gradient: large excess of EDTA outside the liposomes, ZMC1 added subsequently; for shuttling of Zn2+ into liposomes: external [Zn2+]free 10 μM
Method: DOPC-liposomes were prepared by film rehydration and extrusion followed by gel filtration and diluted to an OD600=0.06 in buffer. The size distribution of the liposomes was determined by dynamic light scattering (DLS) using a Malvern Zetasizer Nano ZS. Fluorescence measurements were taken on a Horiba Fluoromax-4 spectrofluorimeter in a 5×5 mm quartz cuvette with λex/λcm=550/572 nm for RZ-3 and 490/515 nm for calcein. Initial Zn^2+ import/export was quantified by fitting the first 10-30 s of data after each treatment to a line and converted to units of flux using the following Eqn 1:
as §1, with “2: […]” for “2:”

H1299 (p53-null) = test: Cell growth inhibition assay, H1299; format: cell-based, human; conditions: three day assay, H1299, FIG. 1
H460 (p53-WT) = test: Cell growth inhibition assay, H460; format: cell-based, human; conditions: three day assay, H460, FIG. 1

Row | ability to cross liposomal (or cellular) membranes [2] | SMILES | increase of intracellular [Zn2+]free (FZ3-AM fluorescence) [1] | change of RZ-3 fluorescence with reversed [Zn2+]free gradient [2] | cell growth inhibition of p53 null cell line (H1299 (p53-null)) | cell growth inhibition of p53 wildtype cell line (H460 (p53-WT)) | shuttling of Zn2+ into liposomes [2] | also measured
1 | crossed the liposomal membranes | C/C(=N\NC(=S)N1CCC1)c1ccccn1 [ZMC1] | increased | time dependent decrease |  |  |  | steady-state intracellular [Zn2+]free ([1]; HEK293, 1 μM ZMC1 and 0.5 μM ZnCl2 in EBSS/H (−)Ca/Mg): 18.1 ± 4.7 nM; increase of intracellular [Zn2+]free, compound alone ([1]; HEK293, EBSS/H (−)Ca/Mg, ZMC1 alone without ZnCl2): neither cell type showed an increase; increase of intracellular [Zn2+]free, with ZnCl2 ([1]; HEK293, EBSS/H (−)Ca/Mg, ZMC1 and ZnCl2, two ZnCl2 concentrations): time dependent increase
2 |  | C/C(=N\Nc1nc2ccccc2o1)c1ccccn1 [Example 2, (E)-2-(2-(1-(pyridin-2-yl)ethylidene)hydrazinyl)benzo[d]oxazole] |  |  | undisturbed | undisturbed |  | 
3 |  | C/C(=N\NC(=O)N1CCC1)c1ccccn1 [Example A6] | did not |  |  |  | shuttled Zn^2+ into the liposomes | 
4 |  | C/C(=N\Nc1nc2ccccc2s1)c1ccccn1 [Example 1, (E)-2-(2-(1-(pyridin-2-yl)ethylidene)hydrazinyl)benzo[d]thiazole] |  |  | undisturbed | undisturbed |  | 
5 | impermeable | O=C(O)CN(CCN(CC(=O)O)CC(=O)O)CC(=O)O [EDTA] |  | did not cause a significant decrease |  |  |  | 

Row | SMILES | ability to cross liposomal (or cellular) membranes [2] | increase of intracellular [Zn2+]free (FZ3-AM fluorescence) [1] | change of RZ-3 fluorescence with reversed [Zn2+]free gradient [2] | cell growth inhibition of p53 null cell line (H1299 (p53-null)) | cell growth inhibition of p53 wildtype cell line (H460 (p53-WT)) | shuttling of Zn2+ into liposomes [2] | also measured
6 | O=C(O)CN(CC(=O)O)CC(=O)O [NTA] | cannot cross | did not |  |  |  | did not | 
